Laboratory results reported in patent US11780826B2 (Amgen Inc., priority 2017, dated 2023).

How the values were obtained:
[1] = tested on: Male CD rats; assay: Echocardiography/ultrasound protocol: fractional shortening (% FS) during intravenous infusion, MEE; format: in vivo; design: unit not given here; conditions: rat, formulation 40% HPbCD, corrected for rat plasma protein binding
Description: Formulations: A compound as disclosed herein and water were admixed together. Either 30% wt/vol or 40% wt/vol of hydroxypropyl beta-cyclodextrin (HPBCD) was added and the mixture stirred until dissolved.
Echocardiography/ultrasound protocol: Serial echocardiography was conducted with the aid of an imaging system suitable for rodent cardiac ultrasound. Male CD rats (6-10 weeks of age; 6-12 animals per group) were cannulated with a jugular vein catheter to enable delivery of test article by intravenous infusion. […] An imaging probe was fixed in position to acquire short axis (SAX), motion (M)—mode images of the left cardiac ventricle at the level of the papillary muscles. Baseline data was acquired prior to initiating test article delivery. Test article (compound as disclosed herein in a HPBCD formulation), or vehicle control, was delivered with the aid of an infusion pump connected to the jugular vein catheter. Infusion rate of test article was increased at 15 min intervals, to a maximum of 5 mL/kg/hr. Ultrasound images were acquired at 5 min intervals. Additionally whole blood (not exceeding 10 uL) was collected via a tail nick at the same 5 min intervals for subsequent exposure determination.
Whole blood samples were analyzed by protein precipitation and liquid chromatography tandem mass spectrometry (LC-MS/MS) using multiple reaction monitoring (MRM) in positive ionization mode. The lower limit of quantitation (LLOQ) in the assay was 1 ng/mL and the upper limit of quantitation (ULOQ) was 10,000 ng/mL.
Offline data analysis of the SAX M-mode ultrasound images was conducted to derive measures of left ventricular end diastolic diameter (LVEDD), left ventricular end systolic diameter (LVESD) and subsequent calculation of fractional shortening (% FS) using the following formula: % FS=((LVEDD−LVESD)/LVEDD)*100. Minimally efficacious exposure (MEE) was defined as the exposure at which a 10% increase in % FS from baseline was observed. The MEE was derived by plotting assayed exposures against % FS and using non-linear curve fitting (log(exposure) vs. % FS; variable slope, 4 parameters). Response to vehicle at each time point was averaged and all test article responses were normalized to baseline and subtracted from time matched (averaged) vehicle responses.

[2] = tested on: Bovine cardiac myofibrils; assay: In vitro model of dose-dependent myofibril ATPase modulation (AC1.4, pyruvate kinase/lactate dehydrogenase-coupled ATPase assay at pCa25); format: biochemical; conditions: concentration at which ATPase activity was 1.4-fold higher than the bottom of the dose curve, mean of a minimum of two independent tests
Procedure, shortened: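 Coupled-enzyme ATPase on bovine heart myofibrils, 1 mM ATP, EGTA/CaCl2 buffered; 340 nm readout.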

[3] = Echocardiography, exposure at 10% increase in % FS from baseline

AC1.4 [2] [µM] | Structure (SMILES) | MEE* (unbound), minimally efficacious exposure [1, 3] | MEE* (unbound), minimally efficacious exposure ([1]; Echocardiography and PV Loop (both protocols named for this value))
0.7092 | CS(=O)(=O)c1cc(C(=O)N2[C@@H](C(=O)N[C@@H](c3cc(F)c(C(F)(F)F)cc3F)C3CC3)C[C@H]3C[C@H]32)ccn1 [Example 279, (1R,3R,5R)—N—((R)-cyclopropyl(2,5-difluoro-4-(trifluoromethyl)phenyl)methyl)-2-(2-(methylsulfonyl)isonicotinoyl)-2-azabicyclo[3.1.0]hexane-3-carboxamide] | 0.68 | 
0.846 | CS(=O)(=O)c1cc(C(=O)N2[C@@H](C(=O)N[C@@H](c3cc(F)c(Cl)cc3F)C3CC3)C[C@H]3C[C@H]32)ccn1 [Example 314, (1R,3R,5R)—N—((R)-(4-chloro-2,5-difluorophenyl)(cyclopropyl)methyl)-2-(2-(methylsulfonyl)isonicotinoyl)-2-azabicyclo[3.1.0]hexane-3-carboxamide] | 0.16 | 

Structure (SMILES) | AC1.4 [2] [µM] | MEE* (unbound), minimally efficacious exposure [1, 3] | MEE* (unbound), minimally efficacious exposure ([1]; Echocardiography and PV Loop (both protocols named for this value))
CS(=O)(=O)c1cccc(C(=O)N2CCC[C@@H]2C(=O)N[C@@H](c2ccc(C(F)(F)F)cc2F)C2CC2)c1 [Example 364, (R)—N—((R)-cyclopropyl(2-fluoro-4-(trifluoromethyl)phenyl)methyl)-1-(3-(methylsulfonyl)benzoyl)pyrrolidine-2-carboxamide] | 1.04 |  | 0.27
